± gives the expanded uncertainty stated by the source.
Test: xn = mol fraction of the nth substance listed
Details: Liquid, Vibrating tube method

CCCCCCCCCC [decane] + CCCO
mass density [kg/m3]
Details	353.15 K	363.15 K
100 kPa, x2 = 0.1391	–	664.41 ± 4.3
100 kPa, x2 = 0.1907	–	663.86 ± 4.2
100 kPa, x2 = 0.3001	–	664.03 ± 4.2
100 kPa, x2 = 0.4326	–	666.18 ± 4.3
100 kPa, x2 = 0.6863	–	680.95 ± 4.4
100 kPa, x2 = 0.8711	–	705.01 ± 4.5
1000 kPa, x2 = 0.1907	–	665.28 ± 4.3
1010 kPa, x2 = 0.1391	–	665.85 ± 4.3
1010 kPa, x2 = 0.3001	–	666.15 ± 4.3
1010 kPa, x2 = 0.6863	–	682.3 ± 4.4
1010 kPa, x2 = 0.8711	–	706.22 ± 4.5
1020 kPa, x2 = 0.4326	–	667.3 ± 4.3
2000 kPa, x2 = 0.1391	–	667.06 ± 4.3
2000 kPa, x2 = 0.1907	–	666.5 ± 4.3
2000 kPa, x2 = 0.6863	–	683.55 ± 4.4
2000 kPa, x2 = 0.8711	–	707.37 ± 4.5
2020 kPa, x2 = 0.3001	–	667.4 ± 4.3
2020 kPa, x2 = 0.4326	–	668.51 ± 4.3
3000 kPa, x2 = 0.3001	–	668.59 ± 4.3
3010 kPa, x2 = 0.1391	–	668.24 ± 4.3
3010 kPa, x2 = 0.4326	–	669.77 ± 4.3
3010 kPa, x2 = 0.6863	–	684.83 ± 4.4
3020 kPa, x2 = 0.1907	–	667.69 ± 4.3
3020 kPa, x2 = 0.8711	–	708.57 ± 4.5
4010 kPa, x2 = 0.1391	–	669.44 ± 4.3
4010 kPa, x2 = 0.1907	–	668.95 ± 4.3
4010 kPa, x2 = 0.3001	–	669.83 ± 4.3
4010 kPa, x2 = 0.6863	–	686.13 ± 4.4
4010 kPa, x2 = 0.8711	–	709.79 ± 4.5
4020 kPa, x2 = 0.4326	–	671.06 ± 4.3
5000 kPa, x2 = 0.4326	–	672.31 ± 4.3
5010 kPa, x2 = 0.1907	–	670.1 ± 4.3
5010 kPa, x2 = 0.8711	–	711.06 ± 4.5
5020 kPa, x2 = 0.1391	–	670.64 ± 4.3
5020 kPa, x2 = 0.3001	–	671.07 ± 4.3
5020 kPa, x2 = 0.6863	–	687.44 ± 4.4
6010 kPa, x2 = 0.3001	–	672.31 ± 4.3
6010 kPa, x2 = 0.8711	–	712.33 ± 4.6
6020 kPa, x2 = 0.1391	–	671.83 ± 4.3
6020 kPa, x2 = 0.1907	–	671.28 ± 4.3
6020 kPa, x2 = 0.4326	–	673.61 ± 4.3
6020 kPa, x2 = 0.6863	–	688.73 ± 4.4
7010 kPa, x2 = 0.1907	–	672.49 ± 4.3
7010 kPa, x2 = 0.6863	–	690.06 ± 4.4
7020 kPa, x2 = 0.1391	–	673.03 ± 4.3
7020 kPa, x2 = 0.3001	–	673.57 ± 4.3
7020 kPa, x2 = 0.4326	–	674.92 ± 4.3
7020 kPa, x2 = 0.8711	–	713.62 ± 4.6
8000 kPa, x2 = 0.3001	–	674.82 ± 4.3
8000 kPa, x2 = 0.4326	–	676.22 ± 4.3
8000 kPa, x2 = 0.6863	–	691.39 ± 4.4
8010 kPa, x2 = 0.1907	–	673.78 ± 4.3
8020 kPa, x2 = 0.1391	–	674.3 ± 4.3
8020 kPa, x2 = 0.8711	–	714.86 ± 4.6
9000 kPa, x2 = 0.1391	–	675.46 ± 4.3
9000 kPa, x2 = 0.3001	–	676.11 ± 4.3
9000 kPa, x2 = 0.6863	–	692.72 ± 4.4
9010 kPa, x2 = 0.1907	–	675 ± 4.3
9010 kPa, x2 = 0.4326	–	677.52 ± 4.3
9020 kPa, x2 = 0.8711	–	716.13 ± 4.6
10000 kPa, x2 = 0.1391	–	676.67 ± 4.3
10000 kPa, x2 = 0.1907	–	676.19 ± 4.3
10010 kPa, x2 = 0.3001	690.11 ± 4.4	677.41 ± 4.3
10010 kPa, x2 = 0.6863	–	694.02 ± 4.5
10010 kPa, x2 = 0.8711	731.37 ± 4.7	717.4 ± 4.6
10020 kPa, x2 = 0.1907	688.55 ± 4.4	–
10020 kPa, x2 = 0.4326	–	678.87 ± 4.3
11000 kPa, x2 = 0.1391	–	677.93 ± 4.3
11000 kPa, x2 = 0.6863	710.38 ± 4.5	–
11010 kPa, x2 = 0.3001	691.26 ± 4.4	678.66 ± 4.3
11010 kPa, x2 = 0.4326	694.72 ± 4.5	–
11010 kPa, x2 = 0.6863	–	695.33 ± 4.5
11020 kPa, x2 = 0.1391	689.4 ± 4.4	–
11020 kPa, x2 = 0.1907	689.66 ± 4.4	677.43 ± 4.3
11020 kPa, x2 = 0.4326	–	680.14 ± 4.4
11020 kPa, x2 = 0.8711	732.51 ± 4.7	718.66 ± 4.6
12000 kPa, x2 = 0.1391	–	679.09 ± 4.4
12000 kPa, x2 = 0.1907	–	678.73 ± 4.3
12000 kPa, x2 = 0.3001	–	679.92 ± 4.4
12010 kPa, x2 = 0.1391	690.47 ± 4.4	–
12010 kPa, x2 = 0.1907	690.83 ± 4.4	–
12010 kPa, x2 = 0.4326	695.89 ± 4.5	681.46 ± 4.4
12010 kPa, x2 = 0.6863	711.53 ± 4.6	696.59 ± 4.5
12010 kPa, x2 = 0.8711	733.61 ± 4.7	719.87 ± 4.6
12020 kPa, x2 = 0.3001	692.38 ± 4.4	–
13000 kPa, x2 = 0.3001	693.53 ± 4.5	–
13000 kPa, x2 = 0.8711	734.68 ± 4.7	–
13010 kPa, x2 = 0.1391	691.56 ± 4.4	680.3 ± 4.4
13010 kPa, x2 = 0.1907	–	679.91 ± 4.4
13010 kPa, x2 = 0.3001	–	681.16 ± 4.4
13010 kPa, x2 = 0.4326	–	682.71 ± 4.4
13010 kPa, x2 = 0.6863	–	697.91 ± 4.5
13020 kPa, x2 = 0.1907	691.91 ± 4.4	–
13020 kPa, x2 = 0.4326	697.03 ± 4.5	–
13020 kPa, x2 = 0.6863	712.69 ± 4.6	–
13020 kPa, x2 = 0.8711	–	721.04 ± 4.6
14000 kPa, x2 = 0.1907	–	681.11 ± 4.4
14000 kPa, x2 = 0.4326	–	683.94 ± 4.4
14010 kPa, x2 = 0.1391	–	681.47 ± 4.4
14010 kPa, x2 = 0.1907	692.99 ± 4.4	–
14010 kPa, x2 = 0.3001	–	682.38 ± 4.4
14020 kPa, x2 = 0.1391	692.62 ± 4.4	–
14020 kPa, x2 = 0.3001	694.63 ± 4.5	–
14020 kPa, x2 = 0.4326	698.13 ± 4.5	–
14020 kPa, x2 = 0.6863	713.81 ± 4.6	699.14 ± 4.5
14020 kPa, x2 = 0.8711	735.8 ± 4.7	722.27 ± 4.6
15000 kPa, x2 = 0.1907	–	682.24 ± 4.4
15000 kPa, x2 = 0.4326	–	685.14 ± 4.4
15000 kPa, x2 = 0.6863	–	700.32 ± 4.5
15010 kPa, x2 = 0.3001	–	683.55 ± 4.4
15010 kPa, x2 = 0.4326	699.22 ± 4.5	–
15010 kPa, x2 = 0.6863	714.9 ± 4.6	–
15010 kPa, x2 = 0.8711	736.86 ± 4.7	723.44 ± 4.6
15020 kPa, x2 = 0.1391	693.66 ± 4.5	682.58 ± 4.4
15020 kPa, x2 = 0.1907	694.05 ± 4.5	–
15020 kPa, x2 = 0.3001	695.7 ± 4.5	–
16000 kPa, x2 = 0.3001	–	684.7 ± 4.4
16000 kPa, x2 = 0.4326	–	686.33 ± 4.4
16010 kPa, x2 = 0.1391	694.64 ± 4.5	683.66 ± 4.4
16010 kPa, x2 = 0.1907	695.08 ± 4.5	683.38 ± 4.4
16010 kPa, x2 = 0.4326	700.29 ± 4.5	–
16010 kPa, x2 = 0.6863	715.98 ± 4.6	–
16010 kPa, x2 = 0.8711	–	724.56 ± 4.7
16020 kPa, x2 = 0.3001	696.78 ± 4.5	–
16020 kPa, x2 = 0.6863	–	701.55 ± 4.5
16020 kPa, x2 = 0.8711	737.89 ± 4.7	–
17000 kPa, x2 = 0.3001	–	685.86 ± 4.4
17000 kPa, x2 = 0.4326	701.32 ± 4.5	–
17010 kPa, x2 = 0.1391	–	684.77 ± 4.4
17010 kPa, x2 = 0.1907	696.15 ± 4.5	684.57 ± 4.4
17010 kPa, x2 = 0.3001	697.84 ± 4.5	–
17010 kPa, x2 = 0.4326	–	687.43 ± 4.4
17010 kPa, x2 = 0.6863	717.03 ± 4.6	–
17020 kPa, x2 = 0.1391	695.67 ± 4.5	–
17020 kPa, x2 = 0.6863	–	702.7 ± 4.5
17020 kPa, x2 = 0.8711	738.93 ± 4.7	725.68 ± 4.7
18000 kPa, x2 = 0.1391	–	685.82 ± 4.4
18000 kPa, x2 = 0.1907	–	685.6 ± 4.4
18000 kPa, x2 = 0.3001	–	686.93 ± 4.4
18010 kPa, x2 = 0.4326	702.35 ± 4.5	–
18010 kPa, x2 = 0.6863	718.05 ± 4.6	703.81 ± 4.5
18010 kPa, x2 = 0.8711	–	726.78 ± 4.7
18020 kPa, x2 = 0.1391	696.65 ± 4.5	–
18020 kPa, x2 = 0.1907	697.1 ± 4.5	–
18020 kPa, x2 = 0.3001	698.82 ± 4.5	–
18020 kPa, x2 = 0.4326	–	688.58 ± 4.4
18020 kPa, x2 = 0.8711	739.92 ± 4.7	–
19000 kPa, x2 = 0.1391	697.56 ± 4.5	686.79 ± 4.4
19000 kPa, x2 = 0.4326	–	689.63 ± 4.4
19000 kPa, x2 = 0.8711	–	727.82 ± 4.7
19010 kPa, x2 = 0.1907	698.02 ± 4.5	686.57 ± 4.4
19010 kPa, x2 = 0.3001	699.8 ± 4.5	687.98 ± 4.4
19020 kPa, x2 = 0.4326	703.33 ± 4.5	–
19020 kPa, x2 = 0.6863	719.04 ± 4.6	704.89 ± 4.5
19020 kPa, x2 = 0.8711	740.89 ± 4.8	–
20000 kPa, x2 = 0.3001	–	688.93 ± 4.4
20000 kPa, x2 = 0.4326	704.33 ± 4.5	–
20000 kPa, x2 = 0.6863	720.06 ± 4.6	–
20000 kPa, x2 = 0.8711	741.82 ± 4.8	728.82 ± 4.7
20010 kPa, x2 = 0.1391	698.43 ± 4.5	687.72 ± 4.4
20010 kPa, x2 = 0.1907	698.94 ± 4.5	687.53 ± 4.4
20010 kPa, x2 = 0.3001	700.68 ± 4.5	–
20010 kPa, x2 = 0.4326	–	690.72 ± 4.4
20010 kPa, x2 = 0.6863	–	706 ± 4.5

Source: the NIST ThermoML archive (doi:10.1021/acs.jced.8b00554)
